Measurements reported in US11466054B2, “Inhibitors of metastasis” (BIOMARCK PHARMACEUTICALS LTD., priority 2013, dated 2022).
Where no end group is shown, it is not given here.

Tests used:
[1] = test system: Human adenocarcinoma cells (PC-9); test: Orthotopic lung cancer implantation model in SCID mice, aerosol from day 4 or day 15 (Example 5); format: in vivo; settings: for total number of tumor nodules found in all tissues: FIG. 14
Description: In this study, inhibition of lung cancer metastasis by BIO-11006 was investigated in an orthotopic lung cancer implantation model in SCID mice. Human adenocarcinoma cells (PC-9) (1-2×10^5) were suspended in 40 μL of PBS containing 0.5 mg/mL of Matrigel™ (BD Bioscience) and injected into the left lung of SCID mice (n=3) using a 29 gauge needle. BIO-11006 was administered starting either 4 days or 15 days post cancer cell inoculation by aerosol using 100 μM solution in PBS by Nebulizer Delivery System (Aeroneb Lab) over 30 min once daily for 25 days post cancer cell inoculation. At end of the experiment, the mice were sacrificed and lungs, heart, and diaphragm tissues collected and number of tumor nodules in each tissue measured. The results of this experiment are presented graphically in FIGS. 13 and 14. […] When the treatment was initiated at 15 days post inoculation of cancer cells, the inhibition of tumor metastasis was about 50% in the lungs, heart, and diaphragm. FIG. 14 depicts the total number of tumor nodules found in all tissues when peptide treatment was started at 15 days post cancer cell inoculation or 4 days post cancer cell inoculation.

[2] = test system: CL1-5 cells; test: Transwell migration assay, CL1-5 cells pretreated with peptide; format: cell-based, human; settings: 12 hours; for cell number: control approximately 105; for migration index: control=1.0;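 on migration index: index equals control cell count divided by treated cell count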
Description: CL1-5 cells, an aggressively metastatic cell line derived from a human adenocarcinoma, were cultured in RPMI 1640 media with 10% FBS, 37° C. at 95% […]/5% CO2 until ready for use. Transwell plates (24-well, 8-um pore size; Costar, Cambridge, Mass., USA) were used to conduct the migration assay. The lower chambers of the Transwell plates were filled with 600 μl of basal media containing 10% FBS. The cells (1×10^5) were pretreated with 50 or 100 μM of the indicated test peptide for 30 min, and then suspended in 100 μl of basal media containing 1% BSA and added to the upper chamber, and the cells then were incubated at 37° C. for 12 hr. The cells on the upper surface of the filters were removed using cotton swabs, and the cells that migrated to the lower surface of the filters were washed, fixed, and stained with hematoxylin and counted under the microscope. The percent change in migration was determined by counting the number of cells that migrated to the lower surface of the filters. At least 3 separate microscopic fields were counted per membrane (n=4).
Primary CL1-5 cells originated from human adenocarcinoma lung cancer Transwell plates with 24-wells, 8-μ pore size (Costar, Cambridge, Mass., USA) were used to conduct the migration assay. The lower chambers of the transwell plates were filled with 600 μL of basal media containing 10% FBS. The cells (1-2×10^5) were suspended in 100 μL of basal media containing 1% BSA. The test peptide at desired concentration was added to the upper chamber directly or after preincubation with cancer cells. The plates were then incubated at 37° C. for 12 hours. The cells on the upper surface of the filters were removed using cotton swabs. The cells that migrated to the lower surface of the filters were washed, fixed, and stained with hematoxylin and counted under the microscope. At least five separate microscopic fields are counted per membrane (n=3). The percent change in migration was determined by counting the number of cells that migrated to the lower surface of the filters.
The count means the actual number of cells which migrated to the lower chamber and counted by a light microscope at 40× magnification, presented as the mean number of cells in 10 randomly chosen fields for each treatment.
The “index” was calculated by dividing the number of cells that migrated in the presence of peptides by the number of cells that migrated randomly (control group). […]. This calculation can reflect the extent that the migration of cells was blocked by 30 minute pretreatment with MANS-related peptides.

[3] = test system: PC-9 cells; test: Orthotopic lung injection xenograph model, PC-9 cells in nude mice; format: in vivo; settings: 50 nmoles i.p. once every three days, 25 days
Description: The metastatic activity of cancer cells in vivo after treatment with MANS peptide or BIO-11006 was assessed in the orthotopic lung injection xenograph model. After pretreatment with either PBS, or PBS+MANS, BIO-11006 (SEQ ID NO: 106), or the control RNS peptide at 100 μM for 4 hours, PC-9 cells were injected into the left lobe of the lung of nude mice. Seven days later, these mice were given systemic treatment with either PBS only (Con), RNS (additional control peptide), MANS or BIO-11006 at 50 nmoles per intraperitoneal injection once every three days. At 25 days (6 injections) post-seeding of these tumor cells, mice were sacrificed and the number of metastasized tumor nodules in the contralateral lung and other organs was counted.

[4] = test system: A549 cells; test: Anti-metastatic efficacy in SCID mice given A549 cells via the tail vein; format: in vivo; settings: Day 53; for No. of metastatic nodules in lungs Mean ± SEM: aerosol 100 μM every other day for 7 weeks
Description: Female NOD.CB17-Prkdc^scid/NCrHsd, Mus musculus mice (Harlan, The Netherlands), housed in individually ventilated cages, were randomized into six groups of eight mice each. A549 cells (2.5×10^6) were injected into the mice via the tail vein. The control group received aerosolized vehicle PBS; while the groups 2 and 3 received the aerosolized test compound BIO-11006 either from −1 day before the cancer cells injection (group 2) or from +3 days after the cancer cell injection (group 3) on every other day for 7 weeks via nebulizer (Aeroneb Lab). Groups 4 and 5 received the aerosolized test compound MANS peptide either from −1 day before the cancer cell line injection (group 4) or from +3 days after the cell line injection (group 5) on every other day for 7 weeks via a nebulizer (Aeroneb Lab). For aerosol delivery, solution of each test compound (100 μM) was prepared in PBS, pH 7.0. For each treatment, 5 mL of test compound solution was aerosolized over 30 minutes into a chamber containing four mice at a time. The mice were monitored for body weight every other day for 7 weeks.
One group of mice (n=7) served as normal control. These were untreated naïve mice used to monitor the health status of mice during the study period. All animals from all groups were sacrificed on Day 53. FIG. 15 compares number of metastatic nodules in lungs after respective administration of BIO-11006 and MANS peptide on Day 53 following A549 cell injection. […] There were few focal tumor nodules in ⅞ of mice treated with BIO-11006 peptide starting at either Day −1 or Day +3 relative to A549 cell injection.

[5] = aerosol 100 μM once daily, started 4 days post inoculation, FIG. 13
[6] = CL1-5, 50 μmolar pretreatment, FIG. 9
[7] = CL1-5, 100 μmolar pretreatment, FIG. 10

**Q.** Which results are given for “N-acetyl-GAQFSKTAAK (Ac-GAQFSKTAAK; listed as Homo sapiens) [BIO-11006]”?
**A.** inhibition of tumor metastasis in the lungs, heart, and diaphragm ([1]; aerosol 100 μM once daily, initiated 15 days post inoculation, FIG. 13): about 50%; inhibition of tumor metastasis in the left lung, heart, and diaphragm [1, 5]: 60-90%; inhibition of tumor metastasis in the right lung [1, 5]: 100%; total number of tumor nodules found in all tissues ([1]; treatment starting at 4 days post cancer cell inoculation): even further reduced tumor nodules; total number of tumor nodules found in all tissues ([1]; treatment starting at 15 days post cancer cell inoculation): reduced tumor nodules; cell number [2, 6]: approximately 50; migration index [2, 6]: approximately 2; cell number [2, 7]: approximately 50; migration index [2, 7]: approximately 2.1; Metastases (affected mice/total mice) Diaphragm [3]: 0/2; Metastases (affected mice/total mice) Heart [3]: 0/2; Metastases (affected mice/total mice) Intestines [3]: 0/2; Metastases (affected mice/total mice) Spleen [3]: 0/2; No. of Metastatic Lung Tumors Mean ± SE (L't) ([3]; left lung): 0; 0; No. of Metastatic Lung Tumors Mean ± SE (R't) ([3]; right lung): 0; 0; Tumor Size (mm) Mean ± SE ([3]; tumor at site of injection, cells pretreated 100 μM 4 hours): 1.61 ± 0.37 mm; animals with few focal tumor nodules ([4]; +3 Day treatment group): Few focal tumor nodules in 7/8; distant metastasis ([4]; +3 Day treatment group): No distant metastasis; No. of metastatic nodules in lungs Mean ± SEM ([4]; +3 Day treatment group): 21 ± 6; animals with few focal tumor nodules ([4]; −1 Day treatment group): Few focal tumor nodules in 7/8; distant metastasis ([4]; −1 Day treatment group): No distant metastasis; No. of metastatic nodules in lungs Mean ± SEM ([4]; −1 Day treatment group): 34 ± 14
